The text below walks through data of publication PMC4286721, “Structural insights into the catalytic mechanism of aldehyde-deformylating oxygenases” (Protein & Cell, 2014).

For assay [1], the target named is T1, SeADO (cADO from Synechococcus elongates PCC7942) (Synechococcus elongatus, UniProt Q54764).
T1 construct: gene Synpcc7942_1593
T1 sequence (Q54764 1-231): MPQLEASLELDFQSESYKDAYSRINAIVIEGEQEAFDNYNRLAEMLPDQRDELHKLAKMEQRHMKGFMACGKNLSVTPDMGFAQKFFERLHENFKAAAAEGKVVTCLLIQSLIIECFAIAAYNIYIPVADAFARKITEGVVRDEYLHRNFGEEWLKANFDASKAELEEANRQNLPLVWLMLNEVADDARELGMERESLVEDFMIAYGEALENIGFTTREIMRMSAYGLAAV
Kind of assay: X-ray crystal structure (WT1, […] A; also WT0, […] A, iron-free); GC-QqQ-MS/MS of extracted ligand. It counts as binding. The conditions noted are these: co-purified ligand in substrate channel; head group bound to Fe2 of di-iron center in WT1; modelled as long-chain fatty alcohol, C18 identified by MS.

Assay [2] concerns the target T1, SeADO (cADO from Synechococcus elongates PCC7942). Kind of assay: GC of n-hexane in headspace. The assay is classed as biochemical. As to conditions: 2 mM n-heptanal, 4% DMSO, ferredoxin, ferredoxin reductase, 800 uM NADPH, 60 uM ferrous ammonium sulphate, O2, HEPES pH 7.2, 37 C.

For the compound `CCCCCCCCCCCCCCCCCCO` [Lred, C18 fatty alcohol], the “X-ray crystal structure (WT1, 2.3 A; also WT0, 2.26 A, iron-free); GC-QqQ-MS/MS” value in assay [1] was “the dominant of the remaining components was identified as a C18 fatty alcohol”.
For the compound `CCCCCCC=O` [n-heptanal], the “GC of n-hexane in headspace” value in assay [2] was “N-heptanal was selected as the substrate to measure the activity of cADO proteins”.
